The test system of one experiment is HIV LTR in J-Lat clones. As to the kind of experiment: LTR-driven GFP expression in J-Lat clones. The following applies: J-Lat clones 9.2 and 10.6, 48 h, all concentrations tested. Type of experiment: cell-based, HIV-1. The protocol:
J-Lat cells are Jurkat cells stably transfected by an HIV genome whose nef sequence was replaced by the GFP gene. Also, a frameshift mutation was introduced to the env gene to prevent virus spread. […] To test the ISDs, a million cells of each clone were treated with different concentrations of each compound (ING-A, ING-B, ING-C, prostratin and PMA) at 37°C. TNF-α (10 ng/mL) was used as a positive control. After 48 h, cells were collected, washed with saline solution (PBS) and GFP expression was evaluated in a FACScalibur cytometer (BD Biosciences). Data were analyzed with Cell Quest Pro software (BD Biosciences).

In experiment [1] the test system is HIV-1 p24 in J-Lat clones. The experiment is described as follows: HIV-1 p24 production in J-Lat clones (ELISA). In kind it is cell-based. The protocol: (§1) ACH-2 and J1.1 are clonal cell lines derived from CEM [52] and Jurkat cells, respectively, after infection with HIV-1. U1 cells were derived from the human promonocyte cell line U937 and chronically infected with HIV-1 [54]. Each cell line (1×10^6 cells) was incubated in the presence of 1 µM of diterpenes (ING-A, ING-B, ING-C, prostratin and PMA) or 10 ng/mL TNF-α for 48 h at 37°C. After incubation, cells were centrifuged and supernatants were collected for the quantitation of gag p24 antigen by ELISA, following the protocol described by the manufacturer (Perkin Elmer).
To assess whether the GFP expression levels induced by ISDs in J-Lats led to viral production, all five clones were stimulated with 1 µM of each compound for 48 h and production of HIV-1 p24 was measured in the culture supernatant by ELISA. Levels of p24 were proportional to GFP expression in clones 6.3 and 9.2, whereas levels in clone 8.4 were lower when compared to GFP (Figure 3A).

The subject of the next experiment is ACH-2 cells. The experiment is described as follows: gag p24 production in ACH-2 cells (ELISA). Type of experiment: cell-based, HIV-1. As to conditions: ACH-2, 1 µM, 48 h. The protocol:
as §1

For experiment [2], the system named is CD4, CXCR4, CCR5 on MT-4 cells. As to the kind of experiment: Surface CD4, CXCR4, CCR5 expression in MT-4 cells (cytometry). In kind it is cell-based. As to conditions: 1 µM. Here is the method: (§2) For analysis of cell surface marker expression, MT-4 cells and bead-selected CD4+ T cells (described above) were incubated with 1 µM of each compound (ING-A, ING-B, ING-C, prostratin, PMA, and bryostatin-1) at 37°C for 48 h. After incubation, cells were washed with PBS and incubated for 20 min at room temperature with antibodies against CD3-Brilliant Violet 510 (clone OKT3 – Biolegend), CD4-Qdot 655 (clone 53.5 - Life Technologies), CXCR4-PE (clone 1265 - BD Biosciences), CCR5-PerCP-Cy5.5 (clone 3A9 - BD Biosciences), CD69-Pacific Blue (clone FN50 – BD Biosciences), CD38-FITC (clone AT-1 – Stem Cell Technologies), CD25-APC (clone 2A3 – BD Biosciences), HLA-DR-Qdot 605 (clone TÜ36 – Life Technologies) and a marker for annexin V-FITC (Life Technologies). Cells (both MT-4 cells and CD4+ T cells) were initially incubated for 2 h with different PKC inhibitors (GÖ6983, GÖ6976 or RO-31-8220). Then, ING-B, prostratin or PMA at 1 µM or TNF-α at 10 ng/mL were added to each condition and incubation was carried out for 24 h at 37°C. Similar protocol was used for the analysis of PKC inhibitors in J-Lat clones 9.2 and 10.6. GFP expression, surface marker expression and activation marker were evaluated on a LSR Fortessa cytometer (BD Biosciences). Data analysis was performed using FlowJo software (Tree Star).

Experiment [3] concerns CD4, CXCR4, CCR5 on CD4+ T lymphocytes. As to the kind of experiment: Surface CD4, CXCR4, CCR5 expression in CD4+ T lymphocytes (cytometry). In kind it is cell-based, human. The following applies: CD4+ lymphocytes, 1 µM. The protocol:
as §2

A further experiment deals with CD4+ T lymphocytes. As to the kind of experiment: Activation markers CD25, CD38, HLA-DR, CD69 on CD4+ T lymphocytes (cytometry). In kind it is cell-based, human. As to conditions: 1 µM. The protocol:
For analysis of cell surface marker expression, MT-4 cells and bead-selected CD4+ T cells (described above) were incubated with 1 µM of each compound (ING-A, ING-B, ING-C, prostratin, PMA, and bryostatin-1) at 37°C for 48 h. […] Cells (both MT-4 cells and CD4+ T cells) were initially incubated for 2 h with different PKC inhibitors (GÖ6983, GÖ6976 or RO-31-8220). Then, ING-B, prostratin or PMA at 1 µM or TNF-α at 10 ng/mL were added to each condition and incubation was carried out for 24 h at 37°C. […] GFP expression, surface marker expression and activation marker were evaluated on a LSR Fortessa cytometer (BD Biosciences). Data analysis was performed using FlowJo software (Tree Star).

The test system of a further experiment is HIV-1 latency. More on the design: method as in PMID 15284245. As to conditions: statement in discussion, reference given only in the next sentence; cited from earlier work.
In another experiment the test system is HIV. More on the design: method as in PMID 8787923. As to conditions: MT-4 cells; cited from earlier work.

Here are results for 2 compounds from paper PMC4020785 (PLoS ONE, 2014).

A value given as a limit tells only on which side of the number the result lay.

Turning to `CC(=O)O[C@@]12C[C@@H](C)[C@@]3(O)[C@@H](C=C(CO)C[C@]4(O)C(=O)C(C)=C[C@@H]34)[C@@H]1C2(C)C` [prostratin, 12-deoxyphorbol 13-acetate], in the experiment with HIV LTR in J-Lat clones, the “levels of GFP expression, rank order” value is recorded as “PMA = ING-B > ING-A = ING-C > prostratin”. In addition, the “p24 in culture supernatant” value in experiment [1] (J-Lat clone 15.4, 1 µM, 48 h) is “does not appear to work”. Besides, the “HIV-LTR activation, overall comparison” value in experiment [1] (J-Lat clones, GFP and p24 taken together) is reported as “the less effective compound among all tested”. Moreover, in the experiment with ACH-2 cells, the “p24 production (in words)” value is recorded as “low levels of p24 production”. In addition, the “downregulation of surface CD4 and CXCR4 (in words)” value in experiment [2] was “not by prostratin and bryostatin-1”. Also, the “downregulation of surface CCR5” value in experiment [3] is “less efficient in downregulating surface expression of CCR5”. In the experiment with CD4+ T lymphocytes, the CD25 surface expression entry is “upregulated” and the HLA-DR surface expression result is given as “not by prostratin”. The “concentration required to reactivate HIV-1 latency” value with HIV-1 latency is “higher than 2 µM”.
In the case of `CC(=O)OCC1=C[C@@H]2C(=O)[C@]3(C=C(C)[C@H](OC(C)=O)[C@@]3(O)[C@@H]1OC(C)=O)[C@H](C)C[C@@H]1[C@H]2C1(C)C` [ITA, Ingenol 3,5,20-triacetate], the “concentration inhibiting HIV replication (as low as)” value in the experiment with HIV is on record as no less than 0.05 µM.
